Laboratory results reported in ChEMBL document CHEMBL1137407, “Identification and optimization of anthranilic sulfonamides as novel, selective cholecystokinin-2 receptor antagonists” (J Med Chem, 2006).

What was measured:
[1] = target: T1, Cholecystokinin receptor type A (Homo sapiens, UniProt P32238)
T1 sequence (P32238 whole entry): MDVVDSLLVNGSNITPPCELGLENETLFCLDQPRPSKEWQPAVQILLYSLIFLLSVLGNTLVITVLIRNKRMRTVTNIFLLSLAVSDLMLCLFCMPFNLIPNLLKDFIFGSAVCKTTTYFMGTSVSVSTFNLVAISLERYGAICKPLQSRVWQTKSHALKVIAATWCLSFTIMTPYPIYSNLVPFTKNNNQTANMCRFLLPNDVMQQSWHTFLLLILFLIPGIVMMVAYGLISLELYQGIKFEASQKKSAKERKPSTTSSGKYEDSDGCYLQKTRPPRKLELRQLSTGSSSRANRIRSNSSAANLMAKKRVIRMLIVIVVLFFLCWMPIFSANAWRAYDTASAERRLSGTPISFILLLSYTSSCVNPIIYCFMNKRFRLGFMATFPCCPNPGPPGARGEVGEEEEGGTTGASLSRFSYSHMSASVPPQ
Description: Displacement of [125I]CCK-8S from human CCK1R

[2] = target: T2, Gastrin/cholecystokinin type B receptor (Homo sapiens, UniProt P32239)
T2 sequence (P32239 whole entry): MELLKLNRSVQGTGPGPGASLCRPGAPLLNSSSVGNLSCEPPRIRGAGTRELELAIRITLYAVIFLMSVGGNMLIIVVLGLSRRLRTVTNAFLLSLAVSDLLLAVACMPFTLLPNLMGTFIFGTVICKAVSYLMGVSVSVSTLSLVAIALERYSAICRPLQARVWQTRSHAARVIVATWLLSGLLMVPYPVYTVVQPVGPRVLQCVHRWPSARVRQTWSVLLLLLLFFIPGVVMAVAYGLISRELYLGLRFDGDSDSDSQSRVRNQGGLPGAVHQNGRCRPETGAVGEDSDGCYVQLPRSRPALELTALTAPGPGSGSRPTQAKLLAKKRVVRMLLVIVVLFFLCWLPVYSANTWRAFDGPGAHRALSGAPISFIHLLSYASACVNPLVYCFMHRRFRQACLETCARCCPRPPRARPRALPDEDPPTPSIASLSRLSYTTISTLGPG
Description: Displacement of [125I]CCK-8S from human CCK2R

SMILES | Ki ([1]; read-out: Ki) [µM] | Ki ([2]; read-out: Log Ki (converted)) [µM] | Ki ([2]; read-out: Ki) [µM] | Ki ([1]; read-out: Log Ki (converted)) [µM]
O=C(c1ccc(Br)cc1NS(=O)(=O)c1cccc2nccnc12)N1CCOCC1 | > 10 | – | – | –
O=C(c1ccc(-c2ccco2)cc1NS(=O)(=O)c1cccc2nsnc12)N1CCCCC1 | > 10 | 0.126 | – | –
O=C(c1ccc(Cl)c(NS(=O)(=O)c2cccc3nsnc23)c1)N1CCCCC1 | > 10 | – | > 10 | –
O=C(c1ccc(OC2CCCC2)cc1NS(=O)(=O)c1cccc2nsnc12)N1CCCCC1 | > 10 | 0.158 | – | –
COc1cc(NS(=O)(=O)c2cccc3nsnc23)c(C(=O)N2CCCCC2)cc1OC | > 10 | 2.51 | – | –
O=C(c1ccc(Cl)cc1NS(=O)(=O)c1cccc2nccnc12)N1CCOCC1 | > 10 | – | – | –
Cc1cccc(C(=O)N2CCCCC2)c1NS(=O)(=O)c1cccc2nsnc12 | > 10 | – | > 10 | –
O=C(c1cccc(Cl)c1NS(=O)(=O)c1cccc2nsnc12)N1CCCCC1 | > 10 | – | > 10 | –
O=C(O)[C@@H]1CCCN1C(=O)c1ccc(Cl)cc1NS(=O)(=O)c1cccc2nsnc12 | > 10 | – | > 10 | –
O=C(c1ccc(F)cc1NS(=O)(=O)c1cccc2nccnc12)N1CCOCC1 | > 10 | 3.98 | – | –
O=C(c1ccccc1NS(=O)(=O)c1cccc2nsnc12)N1CCCCC1 | – | – | > 10 | –
CC(C)c1ccc(C(=O)N2CCCCC2)c(NS(=O)(=O)c2cccc3nsnc23)c1 | > 10 | 0.316 | – | –
O=C(Nc1cc(Br)ccc1C(=O)N1CCCCC1)c1cccc2nsnc12 | > 10 | – | > 10 | –
O=C(c1ccc(-c2ccccc2)cc1NS(=O)(=O)c1cccc2nsnc12)N1CCCCC1 | > 10 | 0.158 | – | –
O=C(c1ccc(Cl)cc1NS(=O)(=O)c1cccc2nsnc12)N1CCCC1 | > 10 | 0.251 | – | –
O=C(NCc1ccccc1)c1ccc(Cl)cc1NS(=O)(=O)c1cccc2nsnc12 | > 10 | 2.51 | – | –
O=C(Nc1ccc(C(=O)N2CCCCC2)c(NS(=O)(=O)c2cccc3nsnc23)c1)c1ccccc1 | – | 7.94 | – | –

SMILES | Ki ([1]; read-out: Ki) [µM] | Ki ([2]; read-out: Log Ki (converted)) [µM] | Ki ([2]; read-out: Ki) [µM] | Ki ([1]; read-out: Log Ki (converted)) [µM]
CC1CN(C(=O)c2ccc(Cl)cc2NS(=O)(=O)c2cccc3nsnc23)CCN1 (configuration not stated) | > 10 | – | > 10 | –
O=C(c1ccc(CS)cc1NS(=O)(=O)c1cccc2nsnc12)N1CCCCC1 | > 10 | 0.1 | – | –
O=C(c1ccc(Br)cc1NS(=O)(=O)c1ccc2nsnc2c1)N1CCCCC1 | > 10 | > 10 | – | –
CCc1ccc(C(=O)N2CCCCC2)c(NS(=O)(=O)c2cccc3nsnc23)c1 | > 10 | 0.251 | – | –
O=C(Nc1ccccc1C(=O)NC(Cc1ccccc1)C(=O)O)c1cc2ccccc2[nH]1 (configuration not stated) | – | – | > 10 | 0.0316
CN(C)c1ccc(C(=O)N2CCCCC2)c(NS(=O)(=O)c2cccc3nsnc23)c1 | > 10 | 0.316 | – | –
O=C(c1ccc(Br)cc1NS(=O)(=O)c1cccc2ncccc12)N1CCCCC1 | > 10 | 0.794 | – | –
O=C(c1ccccc1NS(=O)(=O)c1cccc2nsnc12)N1CCOCC1 | > 10 | – | > 10 | –
CC1CC(C)CN(C(=O)c2ccc(Cl)cc2NS(=O)(=O)c2cccc3nsnc23)C1 (configuration not stated) | > 10 | 1.26 | – | –
O=C(c1ccc(Cl)cc1NS(=O)(=O)c1cccc2nsnc12)N1CCC[C@H]1CN1CCCC1 | > 10 | – | > 10 | –
O=C(c1ccc(Cl)cc1NS(=O)(=O)c1cccc2nsnc12)N1CCSC1 | > 10 | – | – | –
O=C(c1ccc(F)cc1NS(=O)(=O)c1cccc2nsnc12)N1CCCCC1 | – | 1 | – | –
O=C(c1ccc(I)cc1NS(=O)(=O)c1cccc2nsnc12)N1CCOCC1 | > 10 | – | – | –
O=C(N[C@@H](Cc1ccccc1)C(=O)O)c1ccc(Br)cc1NS(=O)(=O)c1cc2ccccc2[nH]1 | – | 2 | – | –
O=C(c1ccc([N+](=O)[O-])cc1NS(=O)(=O)c1cccc2nsnc12)N1CCCCC1 | > 10 | – | – | –
O=C(c1cc(Br)ccc1NS(=O)(=O)c1cccc2nsnc12)N1CCCCC1 | – | 0.794 | – | –
O=C(N[C@@H](Cc1ccccc1)C(=O)O)c1ccccc1NS(=O)(=O)c1cc2ccccc2[nH]1 | – | 5.01 | – | –
